Assay results published in patent US12741974B2, “Compounds constituting C20-modified salinomycin derivatives, a method for obtaining the same, a composition containing the same, a use of said compounds and a method for obtaining an intermediate product” (FILECLO SP. Z O.O., priority 2020, dated 2021).

What was measured:
Type in all cases: cell-based
[1] = tested on: B16-F0 (murine melanoma); experiment: In vitro cytotoxicity test, SRB assay, 72 h incubation with compound; conditions: for IC50: B16-F0 murine melanoma, SRB, 72 h; for SI B16-F0: selectivity coefficient, BALB/3T3 versus B16-F0
Procedure: (§1) In vitro cytotoxicity tests were performed according to the procedure described below. […] The solvent for further dilutions was a culture medium.
(§2) The experiments were repeated at least 3 times.

[2] = tested on: Hs294T (human melanoma); experiment: as above; conditions: for IC50: Hs294T human melanoma, SRB, 72 h; for SI Hs294T: selectivity coefficient, BALB/3T3 versus Hs294T
Procedure: as §1, §2

[3] = tested on: LoVo (drug-sensitive human colon cancer); experiment: as above; conditions: for IC50: LoVo drug-sensitive human colon cancer, SRB, 72 h; for SI LoVo: selectivity coefficient, BALB/3T3 versus LoVo
Procedure: as §1, §2

[4] = tested on: LoVo/DX (drug-resistant human colon cancer); experiment: as above; conditions: for IC50: LoVo/DX drug-resistant human colon cancer, SRB, 72 h; for RI: drug resistance coefficient, LoVo/DX versus LoVo, 4320 min; for SI LoVo/DX: selectivity coefficient, BALB/3T3 versus LoVo/DX
Procedure: as §1, §2

[5] = tested on: MCF-7 (human breast cancer); experiment: as above; conditions: for IC50: MCF-7 human breast cancer, SRB, 72 h; for SI MCF-7: selectivity coefficient, BALB/3T3 versus MCF-7
Procedure: as §1, §2

[6] = tested on: MV-4-11 (human biphenotypic leukaemia); experiment: In vitro cytotoxicity test, MTT assay, 72 h incubation with compound; conditions: for IC50: MV-4-11 human biphenotypic leukaemia, MTT, 72 h; for SI MV-4-11: selectivity coefficient, BALB/3T3 versus MV-4-11
Procedure: as §1, §2
After 4 hours of incubation at 37° C., 80 μL of lysis buffer was added to each well.

[7] = In vitro cytotoxicity test on normal cells, SRB assay, 72 h incubation with compound; conditions: mouse, balb/3t3 cells, normal murine fibroblasts, read-out: IC50 BALB/3T3
Procedure: Normal murine BALB/3T3 fibroblasts were also used in the tests for determining the selectivity coefficients of the compounds used in the assays.
as §1, §2

Row | Compound | IC50 ([1]; Mus musculus, B16F0) | SI B16-F0 [1] | IC50 ([2]; Hs 294T) | SI Hs294T [2] | IC50 [3] | SI LoVo [3] | IC50 [4] | RI [4] | SI LoVo/DX [4] | IC50 ([5]; MCF7) | SI MCF-7 [5] | IC50 ([6]; MV4-11) | SI MV-4-11 [6] | CC50 at 72 h [7] | IC50 [1] | IC50 [2] | IC50 [5] | IC50 [6]
1 | CC[C@@H](C(=O)[C@@H](C)[C@@H](O)[C@H](C)[C@@H]1O[C@@H]([C@@H](CC)C(=O)O)CC[C@@H]1C)[C@H]1O[C@]2(C=C[C@@H](N)[C@]3(CC[C@@](C)([C@H]4CC[C@](O)(CC)[C@H](C)O4)O3)O2)[C@H](C)C[C@@H]1C [(3), C20-aminosalinomycin, reference compound] | 9440 nM | 7.0 | 9730 nM | 6.8 | 33100 nM | 2.0 | 20500 nM | 0.6 | 3.2 | 34900 nM | 1.9 | 5920 nM | 11.2 | 66400 nM | – | – | – | –
2 | CC[C@@H](C(=O)[C@@H](C)[C@@H](O)[C@H](C)[C@@H]1O[C@@H]([C@@H](CC)C(=O)O)CC[C@@H]1C)[C@H]1O[C@]2(C=C[C@@H](NC(=O)CCl)[C@]3(CC[C@@](C)([C@H]4CC[C@](O)(CC)[C@H](C)O4)O3)O2)[C@H](C)C[C@@H]1C [(11), C20-dehydroxy-C20-aminosalinomycin N-chloroacetamide] | 400 nM | 6.5 | 60 nM | 43.2 | 930 nM | 2.8 | 620 nM | 0.7 | 4.2 | 810 nM | 3.2 | 280 nM | 9.2 | 2590 nM | – | – | – | –
3 | CC[C@@H](C(=O)[C@@H](C)[C@@H](O)[C@H](C)[C@@H]1O[C@@H]([C@@H](CC)C(=O)O)CC[C@@H]1C)[C@H]1O[C@]2(C=C[C@@H](NC(=O)CCCCl)[C@]3(CC[C@@](C)([C@H]4CC[C@](O)(CC)[C@H](C)O4)O3)O2)[C@H](C)C[C@@H]1C [(12), C20-dehydroxy-C20-aminosalinomycin N-4-chlorobutyramide] | 560 nM | 30.5 | 70 nM | 243.9 | 630 nM | 27.1 | 1550 nM | 2.5 | 11.0 | 900 nM | 19.0 | 200 nM | 85.4 | 17100 nM | – | – | – | –
4 | CC[C@@H](C(=O)[C@@H](C)[C@@H](O)[C@H](C)[C@@H]1O[C@@H]([C@@H](CC)C(=O)O)CC[C@@H]1C)[C@H]1O[C@]2(C=C[C@@H](NC(=O)COC)[C@]3(CC[C@@](C)([C@H]4CC[C@](O)(CC)[C@H](C)O4)O3)O2)[C@H](C)C[C@@H]1C [(13), C20-dehydroxy-C20-aminosalinomycin N-methoxyacetamide] | 530 nM | 26.4 | 60 nM | 233.5 | 670 nM | 20.9 | 2330 nM | 3.5 | 6.0 | 1310 nM | 10.7 | 270 nM | 51.9 | 14000 nM | – | – | – | –
5 | CC[C@@H](C(=O)[C@@H](C)[C@@H](O)[C@H](C)[C@@H]1O[C@@H]([C@@H](CC)C(=O)O)CC[C@@H]1C)[C@H]1O[C@]2(C=C[C@@H](NC(=O)c3ccc(CCl)cc3)[C@]3(CC[C@@](C)([C@H]4CC[C@](O)(CC)[C@H](C)O4)O3)O2)[C@H](C)C[C@@H]1C [(16), C20-dehydroxy-C20-aminosalinomycin N-(4-chloromethyl)benzamide] | 480 nM | 5.2 | 30 nM | 83.3 | 290 nM | 8.6 | 630 nM | 2.2 | 4.0 | 580 nM | 4.3 | 30 nM | 83.3 | 2500 nM | – | – | – | –
6 | CC[C@@H](C(=O)[C@@H](C)[C@@H](O)[C@H](C)[C@@H]1O[C@@H]([C@@H](CC)C(=O)O)CC[C@@H]1C)[C@H]1O[C@]2(C=C[C@@H](NC(=O)OC)[C@]3(CC[C@@](C)([C@H]4CC[C@](O)(CC)[C@H](C)O4)O3)O2)[C@H](C)C[C@@H]1C [(18), C20-dehydroxy-C20-aminosalinomycin N-methylcarbamate] | 50 nM | 35.2 | 20 nM | 88.0 | 480 nM | 3.7 | 160 nM | 0.3 | 11.0 | 570 nM | 3.1 | 70 nM | 25.1 | 1760 nM | – | – | – | –
7 | CCOC(=O)N[C@@H]1C=C[C@]2(O[C@H]([C@@H](CC)C(=O)[C@@H](C)[C@@H](O)[C@H](C)[C@@H]3O[C@@H]([C@@H](CC)C(=O)O)CC[C@@H]3C)[C@@H](C)C[C@H]2C)O[C@@]12CC[C@@](C)([C@H]1CC[C@](O)(CC)[C@H](C)O1)O2 [(19), C20-dehydroxy-C20-aminosalinomycin N-ethylcarbamate] | 30 nM | 32.3 | 10 nM | 97.0 | 160 nM | 6.1 | 43100 nM | 269.4 | 0.02 | 540 nM | 1.8 | 40 nM | 24.3 | 970 nM | – | – | – | –
8 | CC[C@@H](C(=O)[C@@H](C)[C@@H](O)[C@H](C)[C@@H]1O[C@@H]([C@@H](CC)C(=O)O)CC[C@@H]1C)[C@H]1O[C@]2(C=C[C@@H](NC(=O)OCC(C)(C)C)[C@]3(CC[C@@](C)([C@H]4CC[C@](O)(CC)[C@H](C)O4)O3)O2)[C@H](C)C[C@@H]1C [(20), C20-dehydroxy-C20-aminosalinomycin N-neopentylcarbamate] | 640 nM | 5.1 | 280 nM | 11.6 | 820 nM | 4.0 | 640 nM | 0.8 | 5.1 | 2380 nM | 1.4 | 360 nM | 9.0 | 3240 nM | – | – | – | –
9 | CCCNC(=O)N[C@@H]1C=C[C@]2(O[C@H]([C@@H](CC)C(=O)[C@@H](C)[C@@H](O)[C@H](C)[C@@H]3O[C@@H]([C@@H](CC)C(=O)[O-])CC[C@@H]3C)[C@@H](C)C[C@H]2C)O[C@@]12CC[C@@](C)([C@H]1CC[C@](O)(CC)[C@H](C)O1)O2.[Na+] [(23), propylurea of C20-dehydroxy-C20-aminosalinomycin] | 70 nM | 22.0 | 10 nM | 154.0 | 60 nM | 25.7 | 150 nM | 2.5 | 10.3 | 370 nM | 4.2 | 1.1 nM | 1400.0 | 1540 nM | – | – | – | –
10 | N.N.[Cl][Pt][Cl] [cisplatin, reference compound] | – | – | – | – | 6970 nM | – | 8000 nM | 1.1 | – | – | – | – | – | – | 3840 nM | 4010 nM | 7170 nM | 3400 nM
